Assay results published in patent US20250136607A1 (REGOR PHARMACEUTICALS, INC., priority 2021, published 2025).

Experiments:
[1] = molecular target: Protein arginine deiminase 4 (PAD4) (Homo sapiens, UniProt Q9UM07); experiment: PAD4 ammonia release assay; assay type: biochemical; conditions: PAD4 ammonia release assay, BAEE substrate, 60 min at RT; read-out: Average IC50 Abs
Method in brief: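 PAD4 (20 nM, 2× working solution) was preincubated with compound for 15 min at RT in 100 mM HEPES pH 8.0, 2 mM CaCl2, 50 mM NaCl, 0.1 mM TCEP, BSA at 1.25% DMSO. BAEE (600 μM, 2× mix) reacted 60 min, then OPA/DTT/EDTA detection for 120 min. IC50 came from a 4-parameter fit, normalized to 50 μM reference (100%) and DMSO (0%).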

[2] = tested on: Citrullinated Histone H3 in dHL-60 cells (differentiated HL-60); experiment: dHL-60 Cit-H3 ELISA assay; assay type: cell-based, human; conditions: Homo sapiens, HL-60, 3 h, stimulation with 25 μM A23187 for 3 h, read-out: Average IC50 Abs
Method in brief: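 HL-60 cells differentiated 72 h with DMF, plated at 1×10^5/well, pretreated 30 min with compound (8-point 3-fold series, 0.2% DMSO), then stimulated 3 h at 37 °C with 25 μM A23187 plus S7 nuclease. Supernatant citrullinated H3 quantified by HRP ELISA at 450 nm; IC50 by four-parameter fit.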

Sequence of Protein arginine deiminase 4 (PAD4) (Q9UM07 whole entry): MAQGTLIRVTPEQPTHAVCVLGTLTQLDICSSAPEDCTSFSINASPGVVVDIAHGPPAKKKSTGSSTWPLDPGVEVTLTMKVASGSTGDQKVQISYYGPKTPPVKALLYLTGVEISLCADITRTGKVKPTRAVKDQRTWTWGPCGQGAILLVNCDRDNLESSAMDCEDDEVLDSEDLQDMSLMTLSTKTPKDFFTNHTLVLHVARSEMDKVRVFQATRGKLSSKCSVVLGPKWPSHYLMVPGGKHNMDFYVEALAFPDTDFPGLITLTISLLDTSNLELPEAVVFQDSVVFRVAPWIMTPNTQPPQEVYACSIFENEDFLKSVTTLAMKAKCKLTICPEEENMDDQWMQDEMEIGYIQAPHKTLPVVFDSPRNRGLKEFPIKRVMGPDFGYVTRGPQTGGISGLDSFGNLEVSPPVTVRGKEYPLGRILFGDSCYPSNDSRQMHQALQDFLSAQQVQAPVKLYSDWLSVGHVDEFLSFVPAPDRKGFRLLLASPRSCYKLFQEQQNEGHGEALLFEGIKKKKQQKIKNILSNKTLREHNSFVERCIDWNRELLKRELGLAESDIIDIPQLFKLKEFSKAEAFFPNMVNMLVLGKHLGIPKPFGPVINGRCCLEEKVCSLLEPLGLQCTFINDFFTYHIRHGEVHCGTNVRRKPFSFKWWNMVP

IC50 [1] [nM] | IC50 [2] [nM] | Compound
≤ 100 | ≤ 100 | Cn1c(-c2cc3cccc4c3n2C(C2CC2)CN4CCCO)nc2cc(C(=O)N3C[C@H]4CC[C@@H]3[C@@H]4N)cc(F)c21 (mixture of isomers) [Example 111, [(1R,4R,7R)-7-amino-2-azabicyclo[2.2.1]heptan-2-yl]-[2-[11-cyclopropyl-9-(3-hydroxypropyl)-1,9-diazatricyclo[6.3.1.04,12]dodeca-2,4(12), 5,7-tetraen-2-yl]-7-fluoro-1-methyl-benzimidazol-5-yl]methanone]
100 to 500 | 100 to 500 | C#CCn1c(-c2cc3cccc4c3n2C(CC)CN4CCCO)nc2cc(C(=O)N3C[C@H]4CC[C@@H]3[C@@H]4N)cc(F)c21 (stereo partly drawn) [Example 91, ((1R,4R,7R)-7-amino-2-azabicyclo[2.2.1]heptan-2-yl)(2-(3-ethyl-1-(3-hydroxypropyl)-2,3-dihydro-1H-pyrrolo[1,2,3-de]quinoxalin-5-yl)-7-fluoro-1-(prop-2-yn-1-yl)-1H-benzo[d]imidazol-5-yl)methanone]
≤ 100 | ≤ 100 | Cn1c(-c2cc3ccc4c(c3n2CC2CC2)NCCO4)nc2cc(C(=O)N3C[C@H]4CC[C@@H]3[C@@H]4N)cc(F)c21 [Example 158, ((1R,4R,7R)-7-amino-2-azabicyclo[2.2.1]heptan-2-yl)(2-(9-(cyclopropylmethyl)-1,2,3,9-tetrahydro-[1,4]oxazino[2,3-g]indol-8-yl)-7-fluoro-1-methyl-1H-benzo[d]imidazol-5-yl)methanone]
100 to 500 | 500 to 5000 | CCC1CNc2cccc3cc(-c4nn5cc(C(=O)N6C[C@H]7CC[C@@H]6[C@@H]7N)cc(F)c5c4C)n1c23 (stereo partly drawn) [Example 140, [(1R,4R,7R)-7-amino-2-azabicyclo[2.2.1]heptan-2-yl]-[2-(11-ethyl-1,9-diazatricyclo[6.3.1.0^4,12]dodeca-2,4,6,8(12)-tetraen-2-yl)-4-fluoro-3-methyl-pyrazolo[1,5-a]pyridin-6-yl]methanone]
